Columns and labels:
Format in all cases: in vivo
[1] = system: 3rd-instar larvae of Spodoptera exigua Hübner; assay: Joint toxicity of I-72 + emamectin benzoate, leaf-disk dipping, Example 9, Table 9; details: Spodoptera exigua, cabbage leaf-disk dipping, 72 h, A = compound I-72, B = emamectin benzoate, read-out: LC50
From the text: Test subject: 3rd-instar larvae of Spodoptera exigua Hübner, a sensitive strain reared indoors.
Experimental method: the dipping method was adopted. The cabbage leaves cultivated in the greenhouse were taken, the surface wax layer was removed, and leaf disks with a diameter of 3 cm were made with a puncher. The leaf disks were dipped in the prepared pesticide solution for 10 s, and then put into a 9-cm-diameter Petri dish lined with filter paper. After natural air-drying in the shade, the standard test insects were introduced, with 10 insects placed in each dish and 3 replicates performed. The treated test insects were placed in an observation room under certain conditions. The reaction of the test insects was regularly observed, and the number of dead and live insects was investigated 72 h later.
(§1) The test conditions, the preparation of the pesticide solution and the evaluation method were the same as those in Example 1.

[2] = system: adult Bemisia tabaci (Gennadius); assay: Joint toxicity of I-72 + emamectin benzoate, seedling spraying, Example 12, Table 12; details: Bemisia tabaci; adults, kidney bean seedling spraying, 72 h; A = compound I-72, B = emamectin benzoate; read-out: LC50
From the text: Test subject: adult Bemisia tabaci (Gennadius), a sensitive strain reared indoors.
Experimental method: the spraying method was adopted. The kidney bean seedlings cultivated in the greenhouse were selected and evenly sprayed with the pesticide solution in the order from low dosage to high dosage according to the experimental design. After natural air-drying in the shade, a self-made glass cover was put on, and the test insects were introduced, with 20-30 insects for each treatment and 3 replicates. In addition, a blank control was set up. The number of dead and live insects was investigated 72 hours later. The corrected mortality rate was calculated using the Abbott's formula, and the DPS data processing software was used for statistical analysis to calculate the toxicities (LC50 values) of the single test pesticides and the mixtures under the test ratios.
as §1

[3] = system: 3rd-instar larvae of Ostrinia furnacalis Guenee; assay: Joint toxicity of I-72 + organophosphorus insecticides, corn stalk dipping, Example 21, Table 21; details: 3rd-instar larvae, corn stalk dipping, 48 h, A = compound I-72, B = acephate, read-out: LC50
Experimental: Test target: 3rd-instar larvae of Ostrinia furnacalis Guenee, a sensitive strain reared indoors.
(§2) Preparation of the pesticide solution: according to different test requirements, the test samples were accurately weighed respectively with an electronic analytical balance. The technical pesticides were dissolved in acetone, and then diluted with 0.1% Tween 80 water into a series of pesticide solutions with a certain concentration gradient according to the experimental design dosage.
Experimental method: first, fresh tender corn stalks cultivated in the greenhouse were selected, cut into small sections of 3 cm, and dipped in the prepared pesticide solution for 10 s in the order from low dosage to high dosage according to the experimental design. After natural air-drying in the shade, they were placed in a 9-cm-diameter Petri dish with filter paper, and uniform and healthy test insects were introduced, with 10 insects for each treatment and 3 replicates for each treatment. In addition, a blank control was set up.
The treated test materials were placed in an observation room, and the temperature, humidity and illumination of the observation room could be adjusted as needed. The number of dead and live insects was investigated 48 hours later. The corrected mortality rate was calculated using the Abbott's formula, and statistical analysis was performed with the DPS data processing software to obtain the toxicity regression equation, LC50 value and 95% confidence limit of each single test pesticide and each mixture of different ratios. Then, the co-toxicity coefficient of each ratio was calculated using the Sun Y-P method to evaluate the mixing effect (the same as in Example 1).

[4] = system: 2nd-instar larvae of Chilo suppressalis (Walker); assay: Joint toxicity of I-72 + azadirachtin, Example 36, Table 36; details: A = compound I-72, B = azadirachtin, rice stalk spraying, 72 hours, chlorantraniliprole-resistant strain, read-out: LC50
From the text: Test target: 2nd-instar larvae of Chilo suppressalis (Walker). The insect source was collected from Nanchang, Jiangxi Province, and it is the 11th generation continuously cultured indoors, with a relatively high resistance level to amide pesticides such as chlorantraniliprole.
Experimental method: the spraying method was adopted. Rice stalks with the same length and thickness were selected, cut into the same length, and evenly sprayed with the pesticide solution in the order from low dosage to high dosage according to the experimental design, with 1.5 mL of the pesticide solution for each treatment. The stalks were placed in a 6-cm-diameter Petri dish with filter paper. After natural air-drying in the shade, uniform and healthy test insects were introduced, with 10 insects for each treatment and 4 replicates for each treatment. In addition, a blank control was set up. The number of dead and live insects was investigated 72 hours later. The corrected mortality rate was calculated using the Abbott's formula, and the DPS data processing software was used for statistical analysis to calculate the toxicities (LC50 values) of the single test pesticides and the mixtures under the test ratios.
as §1

[5] = system: 3rd-instar larvae of Yponomeuta evonymallus (Linnaeus); assay: Synergism screening (Bliss) of I-72 + pyrethroid insecticides, Example 37, Table 37; details: single pesticide, leaf dipping, 72 hours
Experimental: Test target: 3rd-instar larvae of Yponomeuta evonymallus (Linnaeus).
as §2
Experimental method: Firstly, Hylotelephium spectabile leaves were selected and dipped into the prepared pesticide solutions for 10 s in the order from low dosage to high dosage according to the experimental design. After natural air-drying in the shade, they were placed in a 9-cm-diameter Petri dish with filter paper, and uniform and healthy test insects were introduced, with 10 insects for each treatment and 3 replicates for each treatment. In addition, a blank control (CK) was set up.
The treated test materials were placed in an observation room, and the temperature, humidity and illumination of the observation room could be adjusted as needed. The number of dead and alive insects was investigated 72 hours later, and the corrected mortality rate was calculated using the Abbott's formula.
The synergism of the mixture was evaluated by the Bliss method. According to the concept of independent joint action he proposed, Bliss believes that the theoretical mortality rate P when insecticides are used in combination can be calculated by the following formula: […]
Pm is the measured mortality rate (%) of the target when the first active ingredient is at a concentration of m; and Pn is the measured mortality rate (%) of the target when the second active ingredient is used at a concentration of n.
If the actual mortality rate of the target after the two active ingredients are mixed at a certain concentration is greater than theoretical mortality rate P, it is determined that the two active ingredients have a synergistic effect when used in combination at the set concentration, and otherwise, they have an antagonistic effect.

[6] = system: Lipaphis erysimi (Kaltenbach); assay: Joint toxicity of I-72 + pyrethrin, Example 47, Table 47; details: Lipaphis erysimi; A = compound I-72, B = pyrethrin; cabbage leaf spraying; 48 hours; read-out: LC50
Experimental: Test target: Lipaphis erysimi (Kaltenbach).
as §2
Experimental method: first, cabbage leaves with uniform and consistent Lipaphis erysimi (Kaltenbach) were selected, with about 30-40 insects on each leaf. Then, they were evenly sprayed with the pesticide solution in the order from low dosage to high dosage according to the experimental design, with 1.5 mL of the solution for each leaf and 3 replicates for each treatment. In addition, a blank control was set up.
The treated test materials were placed in an observation room, and the temperature, humidity and illumination of the observation room could be adjusted as needed. The number of dead and live insects was investigated 48 hours later. […] Then, the co-toxicity coefficient of each ratio was calculated using the Sun Y-P method to evaluate the mixing effect (the same as in Example 1).

SMILES: CN(C(=O)c1ccc2c(c1)OC(F)(F)O2)c1cccc(C(=O)Nc2c(Br)cc(C(F)(C(F)(F)F)C(F)(F)F)cc2OC(F)F)c1F [Compound I-72]
- LC50 [1]: 0.241 µg/mL
- LC50 [2]: 2.97 µg/mL
- LC50 [3]: 1.19 µg/mL
- LC50 [4]: 0.822 µg/mL
- Measured mortality rate (%) ([5]; concentration 0.1 mg/L): 11.1%
- Measured mortality rate (%) ([5]; concentration 5 mg/L): 57.1%
- LC50 [6]: 10.4 µg/mL

Source: patent publication US20260198495A1, “BINARY INSECTICIDE COMPOSITION AND USE THEREOF” (SHENYANG SINOCHEM AGROCHEMICALS R & D CO., LTD., priority 2022, published 2026)
